Columns and labels:
Type in all cases: in vivo
[1] = test system: windgrass (Apera spica-venti); assay: Test C postemergence: windgrass
Outline: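 Visual 0–100 injury score vs untreated controls (0 none, 100 complete control), taken 13–15 d after treatment. Postemergence spray on potted plants, 2–18 cm, 1–4 leaves; greenhouse.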

[2] = test system: rice (Oryza sativa); assay: Test C flooded paddy test: rice; settings: Oryza sativa, scale 0 to 100 (0 no effect, 100 complete control), read-out: Plant response rating, Rice
Outline: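 Plants were grown to the 2-leaf stage, pots flooded to 3 cm above soil, and test compounds applied directly to the paddy water, with that depth held throughout. After 13 to 15 days in a greenhouse, injury was visually rated against controls on a 0 (no effect) to 100 (complete control) scale.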

[3] = test system: surinam grass (Brachiaria decumbens); assay: Test C pre-/postemergence: surinam grass
Outline: (§1)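 Preemergence on seeds in loam/sand, postemergence on 2–18 cm (1–4-leaf) plants in peat-based medium; compounds in non-phytotoxic solvent with surfactant. After 13–15 days in greenhouse, visual rating versus controls, 0 (no effect) to 100 (complete control).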

[4] = test system: Russian thistle (Salsola kali); assay: Test C pre-/postemergence: Russian thistle; settings: Preemergence
From the text: Seeds of plant species selected from blackgrass (Alopecurus myosuroides), bromegrass, downy (downy bromegrass, Bromus tectorum), foxtail, green (green foxtail, Setaria viridis), ryegrass, Italian (Italian ryegrass, Lolium multiflorum), winter wheat (Triticum aestivum), wild oat (Avena fatua), galium (catchweed bedstraw, Galium aparine), bermudagrass (Cynodon dactylon), surinam grass (Brachiaria decumbens), cocklebur (common cocklebur, Xanthium strumarium), corn (Zea mays), large crabgrass (Digitaria sanguinalis), woolly cupgrass (Eriochloa villosa), foxtail, giant (giant foxtail, Setaria faberii), goosegrass (Eleusine indica), johnsongrass (Sorghum halepense), kochia (Kochia scoparia), lambsquarters (Chenopodium album), morningglory (Ipomoea coccinea), nightshade (eastern black nightshade, Solanum ptycanthum), nutsedge, yellow (yellow nutsedge, Cyperus esculentus), pigweed (Amaranthus retroflexus), ragweed (common ragweed, Ambrosia elation), soybean (Glycine max), common (oilseed) sunflower (Helianthus annuus), Russian thistle (Salsola kali) and velvetleaf (Abutilon theophrasti) were planted into a blend of loam soil and sand and treated preemergence with test chemicals formulated in a non-phytotoxic solvent mixture which included a surfactant.
At the same time, plants selected from these crop and weed species and also barley (winter barley, Hordeum vulgare), canarygrass (Phalaris minor), chickweed (common chickweed, Stellaria media) windgrass (Apera spica-venti) and deadnettle (henbit deadnettle, Lamium amplexicaule) were planted in pots containing Redi-Earth® planting medium (Scotts Company, 14111 Scottslawn Road, Marysville, Ohio 43041) comprising spaghnum peat moss, vermiculite, wetting agent and starter nutrients and treated with postemergence applications of test chemicals formulated in the same manner. Plants ranged in height from 2 to 18 cm (1- to 4-leaf stage) for postemergence treatments.
Treated plants and controls were maintained in a greenhouse for 13 to 15 days, after which time all species were compared to controls and visually evaluated. Plant response ratings, summarized in Table C, are based on a scale of 0 to 100 where 0 is no effect and 100 is complete control. A dash (-) response means no test result.

[5] = test system: goosegrass (Eleusine indica); assay: Test C pre-/postemergence: goosegrass
Outline: as §1

[6] = test system: barley, winter (winter barley, Hordeum vulgare); assay: Test D pre-/postemergence: barley, winter
Outline: (§2)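 Pre- and postemergence herbicide screen. Soil for pre: silt loam; post medium: peat moss, vermiculite, wetting agent, starter nutrients. Plant stage at post: 1- to 4-leaf. Readout: visual % control, 14–21 days.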

[7] = test system: speedwell (bird's-eye speedwell, Veronica persica); assay: Test D pre-/postemergence: speedwell
Outline: as §2

[8] = test system: Russian thistle (Salsola iberica); assay: Test D pre-/postemergence: Russian thistle
Outline: as §2

[9] = test system: wheat, spring (spring wheat, Triticum aestivum); assay: Test D pre-/postemergence: wheat, spring
Outline: as §2

[10] = 31 g ai/ha, scale 0 to 100 (0 no effect, 100 complete control)
[11] = 62 g ai/ha, scale 0 to 100 (0 no effect, 100 complete control)
[12] = 125 g ai/ha, scale 0 to 100, 0 no effect, 100 complete control
[13] = Postemergence, 31 g ai/ha, scale 0 to 100 (0 no effect, 100 complete control)
[14] = Postemergence, 62 g ai/ha, scale 0 to 100 (0 no effect, 100 complete control)
[15] = Postemergence, 125 g ai/ha, scale 0 to 100, 0 no effect, 100 complete control
[16] = Postemergence, 250 g ai/ha, scale 0 to 100
[17] = Preemergence, 31 g ai/ha, scale of 0 to 100, 0 is no effect, 100 is complete control
[18] = Preemergence, 62 g ai/ha, scale of 0 to 100, 0 is no effect, 100 is complete control
[19] = Preemergence, 125 g ai/ha, scale 0 to 100, 0 no effect, 100 complete control
[20] = Preemergence, 250 g ai/ha, scale 0 to 100, 0 no effect, 100 complete control
[21] = 31 g ai/ha, scale of 0 to 100, 0 is no effect, 100 is complete control
[22] = 62 g ai/ha, scale of 0 to 100, 0 is no effect, 100 is complete control
[23] = 250 g ai/ha, scale 0 to 100, 0 no effect, 100 complete control
[24] = Postemergence, 8 g ai/ha, scale 0 to 100
[25] = Postemergence, 16 g ai/ha, scale 0 to 100
[26] = Postemergence, 250 g ai/ha, scale 0 to 100 (0 no effect, 100 complete control)
[27] = Preemergence, 16 g ai/ha, scale 0 to 100 (0 no effect, 100 complete control)
[28] = Preemergence, 31 g ai/ha, scale 0 to 100 (0 no effect, 100 complete control)
[29] = Preemergence, 62 g ai/ha, scale 0 to 100
[30] = Preemergence, 125 g ai/ha, scale 0 to 100
[31] = Preemergence, 250 g ai/ha, scale 0 to 100
[32] = Preemergence, 31 g ai/ha, scale 0 (no effect) to 100 (complete control)

## Cc1nn(-c2ccc(C(F)(F)F)cc2)nc1Cc1ccnc(C(F)(F)F)c1 [Compound 47, 4-[[5-methyl-2-[4-(trifluoromethyl)phenyl]-2H-1,2,3-triazol-4-yl]methyl]-2-(trifluoromethyl)pyridine]
[1]; [10]
  Plant response rating, Windgrass: 60
[1]; [11]
  Plant response rating, Windgrass: 80
[1]; [12]
  Plant response rating, Windgrass: 85
[1]; 250 g ai/ha, scale 0 to 100
  Plant response rating, Windgrass: 100
[2]; Flood (flooded paddy test), 62 g ai/ha, visual rating after 13 to 15 days
  plant injury at 62 g/ha: 50%
[2]; Flood (flooded paddy test), 125 g ai/ha, visual rating after 13 to 15 days
  plant injury at 125 g/ha: 60%
[2]; Flood (flooded paddy test), 250 g ai/ha, visual rating after 13 to 15 days
  plant injury at 250 g/ha: 60%
[2]; Flood, 31 g ai/ha
  plant injury at 31 g/ha: 30%
[3]; [13]
  Plant response rating, Surinam Grass: 5
[3]; [14]
  Plant response rating, Surinam Grass: 10
[3]; [15]
  Plant response rating, Surinam Grass: 60
[3]; [16]
  Plant response rating, Surinam Grass: 60
[3]; [17]
  Plant response rating, Surinam Grass: 5
[3]; [18]
  Plant response rating, Surinam Grass: 20
[3]; [19]
  Plant response rating, Surinam Grass: 65
[3]; [20]
  Plant response rating, Surinam Grass: 65
[4]; [21]
  Plant response rating, Russian Thistle: 85
[4]; [22]
  Plant response rating, Russian Thistle: 100
[4]; [12]
  Plant response rating, Russian Thistle: 100
[4]; [23]
  Plant response rating, Russian Thistle: 100
[5]; [13]
  Plant response rating, Goosegrass: 5
[5]; [14]
  Plant response rating, Goosegrass: 35
[5]; [15]
  Plant response rating, Goosegrass: 70
[5]; [16]
  Plant response rating, Goosegrass: 75
[5]; [17]
  Plant response rating, Goosegrass: 98
[5]; [18]
  Plant response rating, Goosegrass: 100
[5]; [19]
  Plant response rating, Goosegrass: 100
[5]; [20]
  Plant response rating, Goosegrass: 100

## Cc1nn(-c2ccc(F)c(F)c2)nc1Oc1ccnc(C(F)(F)F)c1 [Compound 145]
[1]; [10]
  Plant response rating, Windgrass: 50
[1]; [11]
  Plant response rating, Windgrass: 70
[1]; [12]
  Plant response rating, Windgrass: 90
[1]; 250 g ai/ha, scale 0 to 100
  Plant response rating, Windgrass: 90
[6]; [13]
  Plant response rating: Barley, Winter: 5
[6]; [14]
  Plant response rating: Barley, Winter: 10
[6]; [15]
  Plant response rating: Barley, Winter: 20
[6]; [24]
  Plant response rating, Barley, Winter: 0
[6]; [25]
  Plant response rating, Barley, Winter: 5
[7]; [13]
  Plant response rating: Speedwell: 70
[7]; [14]
  Plant response rating: Speedwell: 85
[7]; [15]
  Plant response rating: Speedwell: 100
[7]; [24]
  Plant response rating, Speedwell: 50
[7]; [25]
  Plant response rating, Speedwell: 55
[8]; [13]
  Plant response rating: Russian Thistle: 95
[8]; [14]
  Plant response rating: Russian Thistle: 98
[8]; [15]
  Plant response rating: Russian Thistle: 100
[8]; [24]
  Plant response rating, Russian Thistle: 10
[8]; [25]
  Plant response rating, Russian Thistle: 40
[3]; [13]
  Plant response rating, Surinam Grass: 25
[3]; [14]
  Plant response rating, Surinam Grass: 30
[3]; [15]
  Plant response rating, Surinam Grass: 60
[3]; [16]
  Plant response rating, Surinam Grass: 75
[3]; [17]
  Plant response rating, Surinam Grass: 35
[3]; [18]
  Plant response rating, Surinam Grass: 55
[3]; [19]
  Plant response rating, Surinam Grass: 100
[3]; [20]
  Plant response rating, Surinam Grass: 100
[4]; [21]
  Plant response rating, Russian Thistle: 0
[4]; [12]
  Plant response rating, Russian Thistle: 90
[4]; [23]
  Plant response rating, Russian Thistle: 95
[5]; [13]
  Plant response rating, Goosegrass: 25
[5]; [14]
  Plant response rating, Goosegrass: 35
[5]; [15]
  Plant response rating, Goosegrass: 70
[5]; [16]
  Plant response rating, Goosegrass: 80
[5]; [17]
  Plant response rating, Goosegrass: 98
[5]; [18]
  Plant response rating, Goosegrass: 100
[5]; [19]
  Plant response rating, Goosegrass: 100
[5]; [20]
  Plant response rating, Goosegrass: 100
[9]; [13]
  Plant response rating: Wheat, Spring: 10
[9]; [14]
  Plant response rating: Wheat, Spring: 20
[9]; [15]
  Plant response rating: Wheat, Spring: 25
[9]; [24]
  Plant response rating, Wheat, Spring: 5
[9]; [25]
  Plant response rating, Wheat, Spring: 5

## CCOc1nn(-c2ccc(F)cc2)nc1Cc1ccnc(C(F)F)c1 [Compound 195]
[1]; [10]
  Plant response rating, Windgrass: 55
[1]; [11]
  Plant response rating, Windgrass: 80
[1]; [12]
  Plant response rating, Windgrass: 95
[1]; 250 g ai/ha, scale 0 to 100 (0 no effect, 100 complete control)
  Plant response rating, Windgrass: 100
[6]; [13]
  Plant response rating: Barley, Winter: 10
[6]; [14]
  Plant response rating: Barley, Winter: 15
[6]; [15]
  Plant response rating: Barley, Winter: 30
[6]; [26]
  Plant response rating: Barley, Winter: 45
[6]; [25]
  Plant response rating, Barley, Winter: 0
[6]; [27]
  Plant response rating, Barley, Winter: 0
[6]; [28]
  Plant response rating, Barley, Winter: 0
[6]; [29]
  Plant response rating, Barley, Winter: 0
[6]; [30]
  Plant response rating, Barley, Winter: 0
[6]; [31]
  Plant response rating, Barley, Winter: 20
[7]; [13]
  Plant response rating: Speedwell: 100
[7]; [14]
  Plant response rating: Speedwell: 100
[7]; [15]
  Plant response rating: Speedwell: 100
[7]; [26]
  Plant response rating: Speedwell: 100
[7]; [25]
  Plant response rating, Speedwell: 100
[7]; [27]
  Plant response rating, Speedwell: 30
[7]; [28]
  Plant response rating, Speedwell: 100
[7]; [29]
  Plant response rating, Speedwell: 100
[7]; [30]
  Plant response rating, Speedwell: 100
[7]; [31]
  Plant response rating, Speedwell: 100
[8]; [13]
  Plant response rating: Russian Thistle: 40
[8]; [14]
  Plant response rating: Russian Thistle: 80
[8]; [15]
  Plant response rating: Russian Thistle: 85
[8]; [26]
  Plant response rating: Russian Thistle: 100
[8]; [25]
  Plant response rating, Russian Thistle: 15
[8]; [27]
  Plant response rating, Russian Thistle: 0
[8]; [28]
  Plant response rating, Russian Thistle: 0
[8]; [29]
  Plant response rating, Russian Thistle: 0
[8]; [30]
  Plant response rating, Russian Thistle: 0
[8]; [31]
  Plant response rating, Russian Thistle: 30
[3]; [13]
  Plant response rating, Surinam Grass: 30
[3]; [14]
  Plant response rating, Surinam Grass: 50
[3]; [26]
  Plant response rating, Surinam Grass: 60
[3]; [32]
  Plant response rating, Surinam Grass: 55
[3]; [18]
  Plant response rating, Surinam Grass: 75
[3]; [19]
  Plant response rating, Surinam Grass: 85
[3]; [20]
  Plant response rating, Surinam Grass: 98
[4]; 31 g ai/ha, scale 0 (no effect) to 100 (complete control)
  Plant response rating, Russian Thistle: 90
[4]; [22]
  Plant response rating, Russian Thistle: 90
[4]; [12]
  Plant response rating, Russian Thistle: 90
[4]; [23]
  Plant response rating, Russian Thistle: 90
[5]; [13]
  Plant response rating, Goosegrass: 50
[5]; [14]
  Plant response rating, Goosegrass: 50
[5]; [15]
  Plant response rating, Goosegrass: 60
[5]; [26]
  Plant response rating, Goosegrass: 80
[5]; [32]
  Plant response rating, Goosegrass: 98
[5]; [18]
  Plant response rating, Goosegrass: 100
[5]; [19]
  Plant response rating, Goosegrass: 100
[5]; [20]
  Plant response rating, Goosegrass: 100
[9]; [13]
  Plant response rating: Wheat, Spring: 10
[9]; [14]
  Plant response rating: Wheat, Spring: 20
[9]; [15]
  Plant response rating: Wheat, Spring: 25
[9]; [26]
  Plant response rating: Wheat, Spring: 35
[9]; [25]
  Plant response rating, Wheat, Spring: 5
[9]; [27]
  Plant response rating, Wheat, Spring: 0
[9]; [28]
  Plant response rating, Wheat, Spring: 0
[9]; [29]
  Plant response rating, Wheat, Spring: 0
[9]; [30]
  Plant response rating, Wheat, Spring: 0
[9]; [31]
  Plant response rating, Wheat, Spring: 0

— patent US9302999B2, “Substituted triazoles as herbicides” (E. I. DU PONT DE NEMOURS AND COMPANY, priority 2012, dated 2016)
